This note sets out measurements from article PMC4247381, “Control of somatic membrane potential in nociceptive neurons and its implications for peripheral nociceptive transmission” (Pain, 2014).

Like-named read-outs stand apart in the source and are kept apart here.

The target in one assay is T1, Kv7.2/Kv7.3 (Homo sapiens, UniProt O43525+O43526).
T1 construct: gene KCNQ2; with Kv7.3 (KCNQ3)
As to the kind of experiment: Rb+ efflux assay and whole-cell patch clamp in CHO cells expressing Kv7.[…]/Kv7.[…] (activator). It is filed as cell-based.

The next assay addresses T2, Cav3.2 (Homo sapiens, UniProt O95180).
T2 construct: gene CACNA1H
As to the kind of experiment: whole-cell patch clamp of recombinant human Cav3.[…] in HEK293 cells (enhancer). Format: cell-based. A general note: Patch clamp records ionic current or voltage across a cell membrane.

T1 sequence (O43526 whole entry): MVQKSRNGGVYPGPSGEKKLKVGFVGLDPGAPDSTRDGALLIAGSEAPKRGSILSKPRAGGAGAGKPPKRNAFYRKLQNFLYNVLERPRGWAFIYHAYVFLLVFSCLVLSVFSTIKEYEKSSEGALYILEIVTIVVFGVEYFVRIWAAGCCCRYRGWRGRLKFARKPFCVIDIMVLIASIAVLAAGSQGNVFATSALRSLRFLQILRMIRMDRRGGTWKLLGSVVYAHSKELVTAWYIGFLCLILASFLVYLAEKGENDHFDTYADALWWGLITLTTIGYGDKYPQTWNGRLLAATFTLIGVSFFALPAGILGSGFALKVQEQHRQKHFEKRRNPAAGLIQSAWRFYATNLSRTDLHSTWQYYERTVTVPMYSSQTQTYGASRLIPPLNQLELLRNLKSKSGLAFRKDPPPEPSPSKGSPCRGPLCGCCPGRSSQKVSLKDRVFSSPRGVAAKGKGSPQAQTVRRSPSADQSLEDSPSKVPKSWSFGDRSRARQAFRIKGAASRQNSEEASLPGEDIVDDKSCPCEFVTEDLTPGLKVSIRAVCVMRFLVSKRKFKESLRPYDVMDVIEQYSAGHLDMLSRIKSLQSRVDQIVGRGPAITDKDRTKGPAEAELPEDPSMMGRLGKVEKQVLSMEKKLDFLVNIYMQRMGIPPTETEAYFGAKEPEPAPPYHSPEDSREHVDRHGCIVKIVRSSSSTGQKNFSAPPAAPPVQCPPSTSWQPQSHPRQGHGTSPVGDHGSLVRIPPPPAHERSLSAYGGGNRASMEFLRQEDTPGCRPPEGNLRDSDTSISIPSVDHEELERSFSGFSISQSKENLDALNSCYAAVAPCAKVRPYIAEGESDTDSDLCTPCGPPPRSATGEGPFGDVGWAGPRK
T1 sequence (O43525 whole entry): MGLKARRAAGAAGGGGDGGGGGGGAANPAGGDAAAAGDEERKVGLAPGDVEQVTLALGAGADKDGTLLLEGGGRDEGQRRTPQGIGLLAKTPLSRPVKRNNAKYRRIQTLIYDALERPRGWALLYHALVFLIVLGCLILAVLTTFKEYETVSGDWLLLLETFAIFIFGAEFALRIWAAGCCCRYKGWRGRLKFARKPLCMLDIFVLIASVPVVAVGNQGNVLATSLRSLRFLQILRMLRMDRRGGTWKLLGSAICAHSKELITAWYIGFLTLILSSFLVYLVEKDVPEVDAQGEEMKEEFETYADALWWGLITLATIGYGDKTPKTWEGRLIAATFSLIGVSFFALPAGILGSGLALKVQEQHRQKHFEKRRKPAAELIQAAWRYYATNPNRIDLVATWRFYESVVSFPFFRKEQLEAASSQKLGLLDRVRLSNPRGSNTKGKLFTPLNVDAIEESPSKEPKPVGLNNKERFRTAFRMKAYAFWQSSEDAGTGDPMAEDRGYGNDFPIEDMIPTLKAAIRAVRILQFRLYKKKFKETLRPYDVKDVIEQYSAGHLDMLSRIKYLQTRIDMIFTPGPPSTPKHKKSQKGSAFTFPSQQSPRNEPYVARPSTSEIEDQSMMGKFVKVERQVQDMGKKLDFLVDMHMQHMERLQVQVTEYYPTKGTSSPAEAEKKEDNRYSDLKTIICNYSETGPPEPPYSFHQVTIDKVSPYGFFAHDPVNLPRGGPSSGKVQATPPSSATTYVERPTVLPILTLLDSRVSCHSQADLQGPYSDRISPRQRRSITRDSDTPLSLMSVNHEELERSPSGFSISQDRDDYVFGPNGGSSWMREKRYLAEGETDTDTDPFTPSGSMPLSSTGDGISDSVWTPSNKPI
T2 sequence (O95180 whole entry): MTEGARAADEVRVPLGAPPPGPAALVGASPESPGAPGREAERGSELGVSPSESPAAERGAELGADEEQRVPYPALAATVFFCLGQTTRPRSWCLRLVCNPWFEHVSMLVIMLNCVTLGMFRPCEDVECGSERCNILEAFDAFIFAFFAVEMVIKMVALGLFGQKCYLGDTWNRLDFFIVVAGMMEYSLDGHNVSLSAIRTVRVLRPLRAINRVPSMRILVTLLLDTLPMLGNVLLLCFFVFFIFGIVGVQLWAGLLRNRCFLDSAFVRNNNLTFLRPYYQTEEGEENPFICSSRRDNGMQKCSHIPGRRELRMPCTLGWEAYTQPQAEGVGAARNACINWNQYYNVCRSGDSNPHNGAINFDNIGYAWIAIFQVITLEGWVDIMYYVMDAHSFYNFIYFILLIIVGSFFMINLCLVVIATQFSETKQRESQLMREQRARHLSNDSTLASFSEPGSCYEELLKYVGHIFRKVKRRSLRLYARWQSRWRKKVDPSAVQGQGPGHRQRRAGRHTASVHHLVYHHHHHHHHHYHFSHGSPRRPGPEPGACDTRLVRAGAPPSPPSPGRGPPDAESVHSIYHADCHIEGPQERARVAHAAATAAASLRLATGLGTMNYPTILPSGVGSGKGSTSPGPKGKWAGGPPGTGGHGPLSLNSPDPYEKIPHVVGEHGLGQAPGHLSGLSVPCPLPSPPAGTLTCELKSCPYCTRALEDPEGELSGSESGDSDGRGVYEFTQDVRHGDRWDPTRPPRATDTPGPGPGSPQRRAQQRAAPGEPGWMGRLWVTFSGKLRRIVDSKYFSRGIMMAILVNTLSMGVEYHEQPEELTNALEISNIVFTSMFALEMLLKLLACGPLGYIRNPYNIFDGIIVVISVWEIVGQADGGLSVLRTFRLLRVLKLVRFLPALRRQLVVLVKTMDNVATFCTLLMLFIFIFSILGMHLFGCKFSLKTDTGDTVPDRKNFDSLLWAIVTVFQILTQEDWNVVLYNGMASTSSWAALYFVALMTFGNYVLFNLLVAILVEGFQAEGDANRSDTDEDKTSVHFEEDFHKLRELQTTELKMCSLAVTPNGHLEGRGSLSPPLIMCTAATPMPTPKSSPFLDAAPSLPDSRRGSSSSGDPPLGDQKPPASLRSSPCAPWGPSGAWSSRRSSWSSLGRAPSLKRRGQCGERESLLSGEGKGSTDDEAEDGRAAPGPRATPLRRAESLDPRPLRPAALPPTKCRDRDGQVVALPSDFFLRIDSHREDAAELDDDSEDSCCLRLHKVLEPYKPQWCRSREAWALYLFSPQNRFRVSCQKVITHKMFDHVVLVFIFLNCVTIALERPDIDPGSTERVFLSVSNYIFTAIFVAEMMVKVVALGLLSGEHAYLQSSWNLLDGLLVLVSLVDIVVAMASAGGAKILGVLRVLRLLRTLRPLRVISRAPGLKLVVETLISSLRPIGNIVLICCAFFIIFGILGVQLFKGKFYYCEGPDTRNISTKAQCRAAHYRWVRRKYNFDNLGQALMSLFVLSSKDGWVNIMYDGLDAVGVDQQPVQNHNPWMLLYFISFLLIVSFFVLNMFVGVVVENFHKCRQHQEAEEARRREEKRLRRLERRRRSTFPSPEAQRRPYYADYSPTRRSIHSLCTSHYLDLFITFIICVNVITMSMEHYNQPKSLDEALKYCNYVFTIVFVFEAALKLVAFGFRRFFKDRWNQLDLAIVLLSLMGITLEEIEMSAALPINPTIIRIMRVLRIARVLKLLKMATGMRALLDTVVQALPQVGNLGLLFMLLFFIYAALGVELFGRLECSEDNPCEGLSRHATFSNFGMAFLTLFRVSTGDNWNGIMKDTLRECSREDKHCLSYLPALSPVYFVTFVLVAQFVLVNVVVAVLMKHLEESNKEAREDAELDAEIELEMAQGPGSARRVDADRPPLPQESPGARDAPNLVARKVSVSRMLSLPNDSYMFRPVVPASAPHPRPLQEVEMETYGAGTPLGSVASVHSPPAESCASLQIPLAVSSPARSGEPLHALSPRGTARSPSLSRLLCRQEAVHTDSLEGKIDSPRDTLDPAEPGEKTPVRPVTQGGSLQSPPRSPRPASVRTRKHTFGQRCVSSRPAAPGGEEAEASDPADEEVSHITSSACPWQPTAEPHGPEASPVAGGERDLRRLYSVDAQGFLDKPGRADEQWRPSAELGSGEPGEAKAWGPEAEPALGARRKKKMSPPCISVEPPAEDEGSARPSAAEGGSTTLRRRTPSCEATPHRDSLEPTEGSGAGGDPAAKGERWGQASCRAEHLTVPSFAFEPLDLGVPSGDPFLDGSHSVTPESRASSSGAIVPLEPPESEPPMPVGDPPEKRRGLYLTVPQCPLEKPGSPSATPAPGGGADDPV

Broadly, the EC50 is the concentration at which the effect is half-maximal. As to `Oc1c(Cl)cc(Cl)cc1Sc1cc(Cl)cc(Cl)c1O` [BITH, Bithionol], the EC50 on Kv7.2/Kv7.3 (read-out: EC50) is 4.9 ± 1.08 µM.

Molecule `CCOC(=O)Nc1ccc(NCc2ccc(F)cc2)cc1N` [RTG, Retigabine] had an EC50 at Kv7.2/Kv7.3 of 0.7 ± 0.09 µM.

Turning to `O=C1N=C2C=CC=CN2C12Cc1ccccc1C2` [ST101, spiro[imidazo[1,2-a]pyridine-3,2-indan]-2(3H)-one], the EC50 on Cav3.2 stood at 0.00012 ± 4e-05 µM.
